Data on 3 molecules can be found in US11000033B2, “Ketone or oxime compound, and herbicide” (NISSAN CHEMICAL CORPORATION, priority 2014, dated 2021).

What all share (type): in vivo
For data set [1], the system named is soybean. The data set can be described thus: Test Example 5: effect on crop by foliage application, plastic box (symbol d). The following applies: 320 g/ha, 3 weeks after application. The essentials:
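Box culture: sterile diluvial soil, seeds spot-sown, ~1.5 cm cover, raised under glass at 25–30° C.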

For data set [2], the system named is Setaria viridis. As to the kind of experiment: Test Example 5: herbicidal effect by foliage application, plastic box (symbol G). The following applies: 320 g/ha, 3 weeks after application. A digest of the protocol: (§1)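 Seeds were sown in sterilized diluvial soil, covered with about 1.5 cm of soil and grown 14 days in a greenhouse at 25° C. to 30° C. An emulsifiable formulation diluted in water to a set rate was sprayed over foliage, and injury was scored 3 weeks later.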

The test system of data set [3] is Alopecurus myosuroides. The data set can be described thus: Test Example 5: herbicidal effect by foliage application, plastic box (symbol J). Conditions: 320 g/ha, 3 weeks after application. A digest of the protocol: as §1
The subject of data set [4] is Lolium multiflorum Lam. The data set can be described thus: Test Example 5: herbicidal effect by foliage application, plastic box (symbol K). Conditions: 320 g/ha, 3 weeks after application. A digest of the protocol:
as §1

For data set [5], the system named is soybean. As to the kind of experiment: Test Example 4: effect on crop by soil treatment (symbol d). The following applies: 320 g/ha. The essentials:
(§2)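 Steps: fill box with sterilized diluvial soil; sow seed spot-like; cover with ~1.5 cm soil; grow in greenhouse (25° C. to 30° C.).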

In the next data set the test system is wheat. The data set can be described thus: Test Example 4: effect on crop by soil treatment (symbol e). The following applies: 320 g/ha. The essentials:
as §2

Another data set concerns corn. As to the kind of experiment: Test Example 4: effect on crop by soil treatment (symbol c). The following applies: 320 g/ha. The essentials:
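Seeds were sown in spots on sterilized diluvial soil in a plastic box and covered with about 1.5 cm of soil. Plants were then grown in a greenhouse at 25° C. to 30° C.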

For a further data set, the system named is Cyperus difformis. The data set can be described thus: Test Example 3: herbicidal effect by foliage application, Wagner pot (symbol E). The following applies: application herbicide amount 320 g/ha. A digest of the protocol: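 Post-emergence, paddy-type test: seedlings 14 d old in shallow-flooded (0.1–0.5 cm) alluvial soil, 25–30 °C greenhouse. Emulsion diluted to target rate, sprayed on leaves. Read-out: visual effect on each species at 3 weeks, per set criteria.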

The test system of another data set is rice. As to the kind of experiment: Test Example 4: effect on crop by soil treatment (symbol b). Conditions: 320 g/ha. A digest of the protocol:
as §2

Data set [6] has as its system Veronica persica. The data set can be described thus: Test Example 4: herbicidal effect by soil treatment (symbol R). The following applies: 320 g/ha. The essentials:
(§3)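 Seeds were sown in sterilized diluvial soil, covered with about 1.5 cm of soil, and the soil surface was sprayed with a water-diluted emulsion of the compound at a predetermined rate. Plants grew in a greenhouse at 25° C. to 30° C.; effects were scored visually 3 weeks after application.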

In data set [7] the test system is Echinochloa oryzacola Vasing. As to the kind of experiment: Test Example 1: herbicidal activity, application before weed generation in submerged conditions (symbol A). Conditions: application herbicide amount 320 g/ha. The essentials: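 Flooded alluvial soil (4 cm water) was mixed-sown with the three weed species, and 2.5-leaf rice seedlings were transplanted. On sowing day, a water-diluted emulsion at a predetermined rate was applied to the water surface. After 3 weeks in a 25–30 °C greenhouse, effect was scored 0–5.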

A further data set relates to Amaranthus retroflexus. The data set can be described thus: Test Example 5: herbicidal effect by foliage application, plastic box (symbol N). The following applies: 320 g/ha, 3 weeks after application. The essentials:
as §1

In the next data set the test system is Galium spurium. As to the kind of experiment: Test Example 4: herbicidal effect by soil treatment (symbol Q). The following applies: 320 g/ha. The essentials: as §3
Data set [8] relates to Veronica persica. As to the kind of experiment: Test Example 5: herbicidal effect by foliage application, plastic box (symbol R). Conditions: 320 g/ha, 3 weeks after application. A digest of the protocol:
as §1

Data set [9] deals with Lolium multiflorum Lam. The data set can be described thus: Test Example 4: herbicidal effect by soil treatment (symbol K). The following applies: 320 g/ha. A digest of the protocol:
as §3

In data set [10] the test system is Alopecurus myosuroides. The data set can be described thus: Test Example 4: herbicidal effect by soil treatment (symbol J). The following applies: 320 g/ha. A digest of the protocol: as §3
Data set [11] deals with Setaria viridis. As to the kind of experiment: Test Example 4: herbicidal effect by soil treatment (symbol G). Conditions: 320 g/ha. The essentials: as §3
A further data set deals with Avena fatua. As to the kind of experiment: Test Example 5: herbicidal effect by foliage application, plastic box (symbol I). Conditions: 320 g/ha, 3 weeks after application. A digest of the protocol:
as §1

The test system of the next data set is Apera spica-venti. The data set can be described thus: Test Example 4: herbicidal effect by soil treatment (symbol L). The following applies: 320 g/ha. The essentials: as §3

For the molecule `COc1ccc(CON=C(C)CC2CC(O)=C(c3c(C)cc(C)cc3C)C2=O)cc1` (stereo not drawn) [1-112], the “d: soybean, effect on crop (criteria 0-5)” value (shortened to “d: soybean, effect on crop”) in the data set with soybean [1] was 0 (Herbicidal ratio of 5% or lower (almost no effect)). In addition, the “G: Setaria viridis, herbicidal effect (criteria 0-5)” value (from here on “G: Setaria viridis … (criteria 0-5)”) with Setaria viridis [2] was 4 (Herbicidal ratio of 70% or higher and lower than 90%). Besides, in the data set with Alopecurus myosuroides [3], the “J: Alopecurus myosuroides, herbicidal effect (criteria 0-5)” value is 5 (Herbicidal ratio of 90% or more (almost completely withered)). Also, in the data set with Lolium multiflorum Lam. [4], the “K: Lolium multiflorum Lam., herbicidal effect (criteria 0-5)” value is 5 (Herbicidal ratio of 90% or more (almost completely withered)). Further, the “d: soybean, effect grade on crop” value with soybean [5] is recorded as 0 (Herbicidal ratio of 5% or lower (almost no effect)). The “e: wheat, effect grade on crop” value with wheat is 0 (Herbicidal ratio of 5% or lower (almost no effect)). The “c: corn, effect grade on crop” value in the data set with corn is 1 (Herbicidal ratio of 5% or higher and lower than 20%). Moreover, the “herbicidal effect on E, grade 0-5” value in the data set with Cyperus difformis is listed as 5 (Herbicidal ratio of 90% or more (almost completely withered)). The “b: directly sowed rice plant, effect grade on crop” value (from here on “b: directly sowed rice plant”) in the data set with rice was 5 (Herbicidal ratio of 90% or more (almost completely withered)). Moreover, the “R: Veronica persica, herbicidal effect grade” value with Veronica persica [6] is reported as 0 (Herbicidal ratio of 5% or lower (almost no effect)). Further, the “Herbicidal effect grade, A: Echinochloa oryzacola Vasing.” value in data set [7] is 5 (Herbicidal ratio of 90% or more (almost completely withered)). The “N: Amaranthus retroflexus, herbicidal effect (criteria 0-5)” value (“N: Amaranthus retroflexus” for short) in the data set on Amaranthus retroflexus is listed as 0 (Herbicidal ratio of 5% or lower (almost no effect)). In the data set with Galium spurium, the “Q: Galium spurium, herbicidal effect grade” value (from here on “Q: Galium spurium”) is listed as 0 (Herbicidal ratio of 5% or lower (almost no effect)). For the same molecule, the “R: Veronica persica, herbicidal effect (criteria 0-5)” value (“R: Veronica persica … (criteria 0-5)” below) in the data set on Veronica persica [8] is 3 (Herbicidal ratio of 40% or higher and lower than 70%). Besides, the “K: Lolium multiflorum Lam., herbicidal effect grade” value in the data set with Lolium multiflorum Lam. [9] is 5 (Herbicidal ratio of 90% or more (almost completely withered)). For the same molecule, the “J: Alopecurus myosuroides, herbicidal effect grade” value in the data set on Alopecurus myosuroides [10] is 5 (Herbicidal ratio of 90% or more (almost completely withered)). Also, in the data set with Setaria viridis [11], the “G: Setaria viridis, herbicidal effect grade” value is recorded as 5 (Herbicidal ratio of 90% or more (almost completely withered)). Besides, the “I: Avena fatua, herbicidal effect (criteria 0-5)” value (from here on “I: Avena fatua, herbicidal effect”) with Avena fatua was 5 (Herbicidal ratio of 90% or more (almost completely withered)). For the same molecule, the “L: Apera spica-venti, herbicidal effect grade” value (“L: Apera spica-venti” below) in the data set on Apera spica-venti is reported as 5 (Herbicidal ratio of 90% or more (almost completely withered)).

Regarding `CC(CC1CC(O)=C(c2c(C)cc(C)cc2C)C1=O)=NOCc1cccc(Cl)c1` (stereo not drawn) [1-114], the “d: soybean, effect on crop” value in the data set with soybean [1] was 0 (Herbicidal ratio of 5% or lower (almost no effect)). In addition, the “G: Setaria viridis … (criteria 0-5)” value with Setaria viridis [2] is 5 (Herbicidal ratio of 90% or more (almost completely withered)). Further, the “J: Alopecurus myosuroides, herbicidal effect (criteria 0-5)” value in the data set on Alopecurus myosuroides [3] is 4 (Herbicidal ratio of 70% or higher and lower than 90%). Also, the “K: Lolium multiflorum Lam., herbicidal effect (criteria 0-5)” value in the data set on Lolium multiflorum Lam. [4] was 5 (Herbicidal ratio of 90% or more (almost completely withered)). Further, the “d: soybean, effect grade on crop” value in the data set with soybean [5] is 0 (Herbicidal ratio of 5% or lower (almost no effect)). For the same molecule, the “e: wheat, effect grade on crop” value with wheat is listed as 0 (Herbicidal ratio of 5% or lower (almost no effect)). In addition, the “c: corn, effect grade on crop” value in the data set on corn is on record as 0 (Herbicidal ratio of 5% or lower (almost no effect)). In the data set with Cyperus difformis, the “herbicidal effect on E, grade 0-5” value was 2 (Herbicidal ratio of 20% or higher and lower than 40%). Besides, in the data set with rice, the “b: directly sowed rice plant” value was 3 (Herbicidal ratio of 40% or higher and lower than 70%). Further, in the data set with Veronica persica [6], the “R: Veronica persica, herbicidal effect grade” value was 0 (Herbicidal ratio of 5% or lower (almost no effect)). In addition, the “Herbicidal effect grade, A: Echinochloa oryzacola Vasing.” value in data set [7] is listed as 5 (Herbicidal ratio of 90% or more (almost completely withered)). For the same molecule, the “N: Amaranthus retroflexus” value in the data set on Amaranthus retroflexus was 1 (Herbicidal ratio of 5% or higher and lower than 20%). In addition, the “Q: Galium spurium” value in the data set with Galium spurium is recorded as 0 (Herbicidal ratio of 5% or lower (almost no effect)). For the same molecule, in the data set with Veronica persica [8], the “R: Veronica persica … (criteria 0-5)” value is 2 (Herbicidal ratio of 20% or higher and lower than 40%). In the data set with Lolium multiflorum Lam. [9], the “K: Lolium multiflorum Lam., herbicidal effect grade” value is given as 5 (Herbicidal ratio of 90% or more (almost completely withered)). Also, in the data set on Alopecurus myosuroides [10], the “J: Alopecurus myosuroides, herbicidal effect grade” value was 4 (Herbicidal ratio of 70% or higher and lower than 90%). Further, the “G: Setaria viridis, herbicidal effect grade” value in the data set with Setaria viridis [11] is listed as 5 (Herbicidal ratio of 90% or more (almost completely withered)). The “I: Avena fatua, herbicidal effect” value in the data set with Avena fatua is reported as 5 (Herbicidal ratio of 90% or more (almost completely withered)). For the same molecule, in the data set with Apera spica-venti, the “L: Apera spica-venti” value was 5 (Herbicidal ratio of 90% or more (almost completely withered)).

For the molecule `CC(CC1CC(O)=C(c2c(C)cc(C)cc2C)C1=O)=NOCC1CC1(F)F` (stereo not drawn) [1-109], the “d: soybean, effect on crop” value in the data set with soybean [1] was 0 (Herbicidal ratio of 5% or lower (almost no effect)). The “G: Setaria viridis … (criteria 0-5)” value with Setaria viridis [2] was 5 (Herbicidal ratio of 90% or more (almost completely withered)). Also, the “J: Alopecurus myosuroides, herbicidal effect (criteria 0-5)” value with Alopecurus myosuroides [3] is on record as 5 (Herbicidal ratio of 90% or more (almost completely withered)). In the data set with Lolium multiflorum Lam. [4], the “K: Lolium multiflorum Lam., herbicidal effect (criteria 0-5)” value was 5 (Herbicidal ratio of 90% or more (almost completely withered)). The “d: soybean, effect grade on crop” value in the data set on soybean [5] is 0 (Herbicidal ratio of 5% or lower (almost no effect)). In addition, the “e: wheat, effect grade on crop” value in the data set with wheat was 2 (Herbicidal ratio of 20% or higher and lower than 40%). Further, the “c: corn, effect grade on crop” value with corn is 1 (Herbicidal ratio of 5% or higher and lower than 20%). Also, in the data set on Cyperus difformis, the “herbicidal effect on E, grade 0-5” value is on record as 5 (Herbicidal ratio of 90% or more (almost completely withered)). Besides, the “b: directly sowed rice plant” value in the data set with rice is 5 (Herbicidal ratio of 90% or more (almost completely withered)). The “R: Veronica persica, herbicidal effect grade” value in the data set with Veronica persica [6] is 2 (Herbicidal ratio of 20% or higher and lower than 40%). Besides, in [7], the “Herbicidal effect grade, A: Echinochloa oryzacola Vasing.” value is 5 (Herbicidal ratio of 90% or more (almost completely withered)). For the same molecule, in the data set with Amaranthus retroflexus, the “N: Amaranthus retroflexus” value is reported as 0 (Herbicidal ratio of 5% or lower (almost no effect)). Moreover, the “Q: Galium spurium” value in the data set on Galium spurium was 0 (Herbicidal ratio of 5% or lower (almost no effect)). Moreover, in the data set on Veronica persica [8], the “R: Veronica persica … (criteria 0-5)” value is 3 (Herbicidal ratio of 40% or higher and lower than 70%). For the same molecule, in the data set with Lolium multiflorum Lam. [9], the “K: Lolium multiflorum Lam., herbicidal effect grade” value is 5 (Herbicidal ratio of 90% or more (almost completely withered)). Besides, in the data set with Alopecurus myosuroides [10], the “J: Alopecurus myosuroides, herbicidal effect grade” value was 5 (Herbicidal ratio of 90% or more (almost completely withered)). Besides, the “G: Setaria viridis, herbicidal effect grade” value in the data set on Setaria viridis [11] is on record as 5 (Herbicidal ratio of 90% or more (almost completely withered)). The “I: Avena fatua, herbicidal effect” value in the data set on Avena fatua is reported as 5 (Herbicidal ratio of 90% or more (almost completely withered)). The “L: Apera spica-venti” value in the data set on Apera spica-venti was 5 (Herbicidal ratio of 90% or more (almost completely withered)).
